For data set [1], the system named is Cladosporium herbarum. Put plainly: Antifungal activity against Cladosporium herbarum assessed as growth inhibition at 23 degC measured after 72 hr. In kind it is functional.
Data set [2] has as its system Cladosporium herbarum. Description: Antifungal activity against Cladosporium herbarum assessed as growth inhibition at 0.006 mg/mL at 23 degC measured after 72 hr. The data set is classed as functional, organism-based.
Another data set has as its system Artemia salina. Put plainly: Toxicity in Artemia salina (brine shrimp) measured after 24 hr. The data set is classed as organism-based. As to conditions: in vivo.
Another data set deals with Spodoptera littoralis. Put plainly: Feeding deterrence in Spodoptera littoralis in compound treated lettuce disk assessed as feeding ratio measured as area consumed of treated disks per area consumed of the control disk at 20 ug/disk by disk choice assay. The data set is classed as functional.

Activity calls are given as the source filed them. The rule behind the calls is not given here.

Usually LC50 stands for the concentration lethal to half of the exposed cells or organisms. Low values mean a more lethal substance, high ones a less lethal substance. `CS/C=C/C(=O)OCCc1ccccc1` [ISOTACHIN B]: the MIC in the data set on Cladosporium herbarum [1] is 0.006 mg. Also, the “growth inhibition (GI)” value in the data set on Cladosporium herbarum [2] was “Active”. Also, the LC50 in the data set with Artemia salina is listed as less than 2.5 ppm. In addition, the Ratio in the data set with Spodoptera littoralis came to 0.44.

Turning to `O=C(/C=C/c1ccccc1)OCCc1ccccc1` [PHENETHYL CINNAMATE], in the data set with Artemia salina, the LC50 was less than 2.5 ppm. In addition, in the data set on Spodoptera littoralis, the Ratio is 0.96.

As to `O=C1C2CC=CCC2C(=O)N1SC(Cl)(Cl)Cl` (configuration not stated) [CAPTAN], the MIC in the data set with Cladosporium herbarum [1] is reported as 0.02 mg.

Regarding `CC(=O)N1CCN(c2ccc(OCC3COC(Cn4ccnc4)(c4ccc(Cl)cc4Cl)O3)cc2)CC1` (configuration not stated) [KETOCONAZOLE], the MIC in the data set on Cladosporium herbarum [1] is listed as 0.01 mg.

With `O=C(OC[C@H](O)c1ccccc1)c1ccccc1`, the MIC in the data set with Cladosporium herbarum [1] amounted to 0.05 mg. In the data set on Artemia salina, this molecule returned an LC50 of 7.4 ppm. Besides, the Ratio in the data set on Spodoptera littoralis turned out to be 0.73.

In the data set with Artemia salina, `O=C(/C=C\c1ccccc1)OCCc1ccccc1` returned an LC50 of less than 2.5 ppm. The Ratio in the data set on Spodoptera littoralis amounted to 0.5.

Consider `Cl[C@H]1[C@H](Cl)[C@@H](Cl)[C@@H](Cl)[C@H](Cl)[C@H]1Cl` [LINDANE], for which the LC50 in the data set with Artemia salina was 7.2 ppm.

In the case of `O=C(OCCc1ccccc1)c1ccccc1` [PHENETHYL BENZOATE], the MIC in the data set on Cladosporium herbarum [1] is given as 0.1 mg. In the data set with Artemia salina, this molecule gave an LC50 of less than 2.5 ppm. The Ratio in the data set on Spodoptera littoralis is listed as 0.56.

The record behind these values is ChEMBL document CHEMBL3046727, “Antifungal and insect antifeedant 2-phenylethanol esters from the liverwort Balantiopsis cancellata from Chile” (J Agric Food Chem, 2005).
